From patent publication US20160052985A1, “THYMIC STROMAL LYMPHOPOIETIN FRAGMENTS AND USES THEREOF” (IEO - ISTITUTO EUROPEO DI ONCOLOGIA SRL, priority 2013, published 2016)

Columns and labels:
[1] = test system: C57Bl/6J mice; assay: LPS-induced endotoxic shock, serum cytokines; type: in vivo, mouse; details: for level of inflammatory cytokines in the serum: endotoxin shock model, short TSLP fragments
Protocol: (§1) Mice were treated intraperitoneally (i.p.) with short TSLP at 50, 100, 200 μg per mouse in 200 μl of injectable water twice, 12 hours and 2 hours, before LPS administration (n=8 per group). Control mice received water. LPS (E. coli serotype 026:B6; Sigma-Aldrich) was injected intraperitoneally (i.p.) at 200 μg per mouse in 200 μl of injectable water. After 6 hours mice were euthanized by exsanguination under anesthesia and blood was collected. IFNgamma, IL6 and IL12-p40 levels were detected in the serum by ELISA (R&D Systems), according to manufacturer's instructions.

[2] = test system: mice with DSS-induced colitis; assay: DSS-induced colitis; type: in vivo, mouse; details: 3% DSS, 200 μg i.p. every other day
Protocol: Colitis was induced by adding 3% (w/v) DSS (TdB Consultancy AB, Uppsala, Sweden) to drinking water for 9 days. Mice were treated i.p. with short TSLP (200 μg in 200 μl of injectable water) the day before DSS administration and every other day during the entire study. Mice were monitored daily for weight loss.

[3] = test system: peripheral blood mononuclear cells (PBMC); assay: bidirectional allogenic mixed lymphocyte reaction (MLR), IFNgamma by ELISA; type: cell-based, human; details: PBMC from two donors 1:1, increasing doses, 5 days
Source text: Buffy coats were obtained from healthy donors (Abbiategrasso hospital, Italy) with informed consent for research use. Peripheral blood mononuclear cells (PBMC) were separated with Ficoll (GE Healthcare) gradient centrifugation and then resuspended and cultured in RPMI 1640 medium (Lonza) containing 10% fetal bovine serum (Gibco), 1% Glutamine 1% pyruvate, 1% non essential AA and 1% Penicillin-Streptomycin. PBMC from two different donors were co-cultured (1:1) in presence of long and short TSLP at different concentrations. After 5 days supernatants were collected and IFNgamma levels were measured by ELISA (R&D systems).

[4] = test system: naive CD4 T cells cocultured with mDC; assay: conditioned myeloid DCs cocultured with naive CD4 T cells; type: cell-based, human
Protocol: (§2) Myeloid BDCA1+ cells were isolated from PBMC using CD1c (BDCA-1)+ Dendritic Cell Isolation Kit (Miltenyi Biotec) according to the manufacturer's instructions. […] Cells were then washed and cocultured with naïve CD4 T cells from a different donor (ratio 1 DC: 5 T). CD4 cells were isolated using naive CD4+ T Cell Isolation Kit II (Miltenyi Biotec) according to the manufacturer's instructions. After 6 days supernatants were collected and cells were restimulated for 4 hours with PMA (phorbol 12-myristate 13-acetate, 50 ng/ml) and ionomycin (1 ug/ml); for the last 3 hours brefeldin A (10 ug/ml) was added to the culture. Intracellular staining for TNF and IFNgamma positive cells was performed afterwards. CCL17, CCL22 and IFNgamma levels were assessed in the supernatant of DC or of the DC-T culture by ELISA (R&D Systems).

[5] = test system: monocyte-derived dendritic cells; assay: monocyte-derived DCs conditioned 24 h, then Salmonella challenge; cytokine secretion by cytometric bead assay; type: cell-based, human; details: 24 h conditioning, then LPS or bacterial stimulation
Protocol: (§3) Peripheral CD14^+ monocytes were isolated from PBMC using human CD14^+ microbeads (Miltenyi Biotec) according to the manufacturer's instructions. Cells were then cultivated in complete RPMI 1640 medium in the presence of IL4 (2.5 ng/ml) and GM-CSF (5 ng/ml) (BD Biosciences) for 6 days to obtain monocyte-derived dendritic cells. The percentage and the phenotype of cell subsets were evaluated before and after differentiation by flow cytometry. Dendritic cells were seeded in complete RPMI 1640 medium at 1×10^6/ml in 48-well plates in the presence of short TSLP at different concentrations or culture medium alone. After 24 hours of culture dendritic cells were gently washed and challenged with Salmonella typhimurium FB62 (MOI 1:1) for 1 hour. Bacteria were then washed out and the medium replaced with medium containing 100 μg/ml gentamycin. Cytokine secretion was assessed after 24 hours by cytometric bead assay Flex sets (BD Biosciences). CBA were acquired on a BD Accuri C6 (BD Biosciences) and analyzed with FCAP software (BD Biosciences).

[6] = test system: intestinal mucosa from ulcerative colitis patients; assay: ex-vivo organ culture of intestinal mucosa from ulcerative colitis patients; set-up: species or system human; details: 100 and 1000 ng/ml
Protocol: The activity of short TSLP on IBD tissues was assessed directly on human intestinal mucosa. Briefly, IBD mucosa was separated from the submucosa and mounted as described (Tsilingiri K., et al. J Vis Exp. 2013).

[7] = test system: monocyte-derived dendritic cells; assay: FACS analysis of activation status of monocyte derived DCs; type: cell-based, human; details: 24 h conditioning; immature and Salmonella treated (mature) DCs
Protocol: as §3
Cells were stained with monoclonal anti-human fluorescently conjugated antibodies: CD14 (M5E2), CD19 (HIB19), CD11c (B-ly6), CD45RA (HI100), CD3 (UCHT1), TNF (Mab11), IFNg (4S.B3), TNF (Mab11) from BD Biosciences; CD4 (RPA-T4) from Ebioscience; CD1a (HI149) and TSLPR (1B4) from Biolegend.

[8] = test system: tslpr-/- mice; assay: LPS-induced endotoxic shock in TSLPR knock-out mice; type: in vivo, mouse; details: 200 μg i.p.
Protocol: Female C57Bl/6J mice (8 to 10 weeks of age) were obtained from Charles River Laboratories (Milan, Italy). TSLPR-deficient mice on the C57Bl/6J background were provided by Dr W. J. Leonard (Laboratory of Molecular Immunology, NHLBI, USA). Mice were bred and maintained at IFOM-IEO campus animal facility under specific pathogen-free conditions. All experiments were performed in accordance with the guidelines established in the Principle of Laboratory Animal Care (directive 86/609/EEC).
as §1

[9] = test system: HaCaT cells; assay: qPCR of TSLP isoform mRNA in challenged HaCaT keratinocytes; type: cell-based, human; details: 24 hours challenge
Protocol: RNA was extracted using the RNeasy Micro Kit (Qiagen). RNA was reverse transcribed with oligo(dT) and ImProm-II™ Reverse Transcriptase (Promega). Quantitative real-time PCRs were performed with Fast SYBR Green PCR kit on the Applied Biosystems 7900HT Fast RT-PCR System (Applied Biosystems). Results were quantified using the 2-DCt method (Livak and Schmittgen, Methods, 2001). Gene expression was normalized to the expression of the housekeeping gene, gapdh.
Caco2 cells were cultured in DMEM supplemented with 10% FBS, 1% Glutamine, 1% non-essential aminoacids, 1% Penicillin-Streptomycin. HaCaT cells were cultured in DMEM supplemented with 10% FBS, 1% Glutamine, 1% Penicillin-Streptomycin. For growth on transwell inserts (Corning), 2×10^5 caco2 cells were seeded on 6 mm^2 transwells and grown for 10-12 days, until transepithelial resistance was roughly […]. Cells were infected with bacteria in the absence of antibiotics at a multiplicity of infection of 1:100 for one hour. Then medium was replaced with complete medium containing 100 μg/mL Gentamicin and the cells were cultured for a further 23 hours. HaCaT cells were challenged with calcitriol, an active form of vitamin D, (10 μM, Enzo Life Sciences), or poly(I:C) (1 μg/mL) for 24 hours. At the end of the challenge cells were lysed in Trizol (Ambion, Life Technologies) reagent for RNA extraction or RIPA buffer for protein extraction.

[10] = test system: myeloid dendritic cells (mDC); assay: flow cytometry of STAT5 pY694 in myeloid dendritic cells; type: cell-based, human; details: 15 minutes, 3.5 nM, in the absence and in the presence of the short isoform
Protocol: Control conditions included cells either left unstimulated (negative control) or incubated with sodium pervanadate ([…], positive control, data not shown). At the end of incubation cells were rapidly spun, fixed with BD Cytofix™ Buffer for 15 minutes at 37° C. and permeabilized with BD™ Phosflow Perm Buffer III on ice for 30 minutes, followed by intracellular staining using mouse anti-pSTAT5 (pY694) antibody (45/Stat5, BD Biosciences) or isotype antibody (MOPC-21). Samples were acquired on a BD Cantoll flow cytometer (BD Biosciences) and analyzed with FlowJo software (v8.7, Tree Star).

[11] = test system: myeloid dendritic cells (mDC); assay: CCL17 and CCL22 ELISA in supernatants of myeloid DCs; type: cell-based, human; details: 24 hours, in the absence and in the presence of the short isoform
Protocol: as §2

[12] = i.p. 12 hours and 2 hours before LPS, 6 hours after LPS, dose-dependent

short TSLP: short TSLP peptide, aa 4-63 of SEQ ID NO: 1, mw 7 KDa, synthesized in house
IFN-γ in the sera [1, 12]: significant decrease | IL-6 in the sera [1, 12]: significant decrease | IL-12p40 in the sera [1, 12]: significant decrease | body weight loss [2]: significantly limiting weight loss | inhibition of the release of IFN-gamma [3]: 50% | percentage of Th1 cells ([4]; conditioned DCs 24 h, 6 days coculture, IFNgamma intracellular staining): reducing the percentage of Th1 cells | IFN-gamma secretion in DC-T coculture ([4]; conditioned DCs 24 h, supernatant day 6): reducing | counter effect to long TSLP on myeloid DCs ([4]; equimolar ratio with long TSLP): does not mediate a counter effect to the long isoform | capacity to release IL12-p70 [5]: strongly affected | capacity to release IL-1beta [5]: strongly affected | capacity to release IL-6 [5]: strongly affected | capacity to release IL-10 [5]: strongly affected | capacity to release TNF-alfa [5]: strongly affected | ongoing inflammation in the tissue [6]: ameliorated the ongoing inflammation in the tissue | production of mucous by goblet cells [6]: restored the production of mucous by goblet cells | tissue architecture [6]: normalized tissue architecture | expression of maturation markers CD80, CD86 or HLA-DR [7]: no change | anti-inflammatory effect (serum cytokines) in TSLPR knock-out mice [8]: also manifested

C terminal peptide: C terminal fragment of short TSLP, aa 24-63 of SEQ ID NO: 1, mw 4.8 KDa (ATQAMKKRRKRKVTTNKCLEQVSQLQGLWRRFNRPLLKQQ; listed as Homo sapiens)
level of inflammatory cytokines in the serum [1]: able to reduce the level of inflammatory cytokines in the serum | IFN-gamma release in MLR [3]: inhibiting IFNgamma secretion

C=C1/C(=C\C=C2/CCC[C@]3(C)[C@@H]([C@H](C)CCCC(C)(C)O)CC[C@@H]23)C[C@@H](O)C[C@@H]1O [vitamin D, calcitriol]
short TSLP mRNA [9]: significantly upregulated mRNA for short TSLP

N terminal: N terminal fragment of short TSLP, aa 4-40 of SEQ ID NO: 1, mw 4.2 KDa (MKTKAALAIWCPGYSETQINATQAMKKRRKRKVTTNK; listed as Homo sapiens)
level of inflammatory cytokines in the serum [1]: did not exert any effects | IFN-gamma release in MLR [3]: inhibiting IFNgamma secretion

polyI:C
long TSLP mRNA [9]: upregulated the long isoform

long TSLP: recombinant human TSLP long isoform, aa. 29-159 of SEQ ID NO: 2, from R&D Systems, or produced in house in baculovirus
STATS phosphorylation [10]: significantly increased | IFN-gamma release in MLR [3]: increasing the amount of IFN-gamma released | ongoing inflammation in the tissue [6]: only short TSLP ameliorated the ongoing inflammation | secretion of CCL17 [11]: significantly increased | secretion of CCL22 [11]: significantly increased
